Data on 15 compounds can be found in patent US20250235543A1, “MODIFIED PROTEINS AND PROTEIN DEGRADERS” (Cullgen (Shanghai), Inc., priority 2021, published 2025).

For experiment [1], the system named is cyclin D1. Kind of experiment: Cyclin D1 percentage degradation in Calu-1 cells (immunoblotting). The note with it: 16 hours. The format is cell-based. The procedure: (§1) […] A: protein percentage degradation >=80%; B: protein percentage degradation <80%, and >=50%; C: protein percentage degradation <50%, and >=30%; D: protein percentage degradation <30%.
(§2) Cultured cells were washed with cold PBS once and lysed in cold RIPA buffer supplemented with protease inhibitors and phosphatase inhibitors (Beyotime Biotechnology). The solutions were then incubated at 4° C. for 30 min with gentle agitation to fully lysed cells. Cell lysates were centrifuged at 13,000 rpm for 10 min at 4° C. and pellets were discarded. Total protein concentrations in the lysates were determined following BCA assays (Beyotime Biotechnology). Cell lysates were mixed with Laemmli loading buffer and heated at 99° C. for 5 min. Proteins were resolved on SDS-PAGE and visualized using Western ECL Substrate kits on a ChemiDoc MP Imaging system (Bio-Rad). Protein bands were quantitated using the Image Lab software provided by Bio-Rad.
(In western blotting, separated proteins are transferred to a membrane and probed.)

Experiment [2] deals with T1, CDK4 (Homo sapiens, UniProt P11802).
T1 construct: endogenous in cells; host or cells: Calu-1
In words: CDK4 percentage degradation in Calu-1 cells (immunoblotting). The format is cell-based. The note with it: for inhibition at 10 µM: read-out: CDK4 Degradation (10 μM); for inhibition at 0.2 µM: read-out: CDK4 Degradation (200 nM). The procedure:
as §1, §2

Read-outs that look alike come from different tables or passages of the source. Where only a bound is given, the exact number is not on record here.

T1 sequence (P11802 2-303 limits assumed): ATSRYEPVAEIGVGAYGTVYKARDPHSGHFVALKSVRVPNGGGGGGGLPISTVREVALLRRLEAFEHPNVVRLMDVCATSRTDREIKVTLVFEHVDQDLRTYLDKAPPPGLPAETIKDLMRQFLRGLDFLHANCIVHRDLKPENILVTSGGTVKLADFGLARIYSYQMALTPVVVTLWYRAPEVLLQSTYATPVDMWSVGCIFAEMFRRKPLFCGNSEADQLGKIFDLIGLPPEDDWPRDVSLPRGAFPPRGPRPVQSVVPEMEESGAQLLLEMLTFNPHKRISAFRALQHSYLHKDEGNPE
T1 sequence (P24385 whole entry partner): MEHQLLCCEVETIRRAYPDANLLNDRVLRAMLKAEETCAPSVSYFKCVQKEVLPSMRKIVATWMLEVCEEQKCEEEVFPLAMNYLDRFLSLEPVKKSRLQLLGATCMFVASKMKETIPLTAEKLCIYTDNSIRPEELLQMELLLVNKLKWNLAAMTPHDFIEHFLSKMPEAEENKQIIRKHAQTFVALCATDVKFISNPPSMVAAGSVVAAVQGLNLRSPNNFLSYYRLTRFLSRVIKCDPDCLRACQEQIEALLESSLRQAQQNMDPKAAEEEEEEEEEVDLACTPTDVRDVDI
T1 sequence (Q16531 2-1140 limits assumed, further chain): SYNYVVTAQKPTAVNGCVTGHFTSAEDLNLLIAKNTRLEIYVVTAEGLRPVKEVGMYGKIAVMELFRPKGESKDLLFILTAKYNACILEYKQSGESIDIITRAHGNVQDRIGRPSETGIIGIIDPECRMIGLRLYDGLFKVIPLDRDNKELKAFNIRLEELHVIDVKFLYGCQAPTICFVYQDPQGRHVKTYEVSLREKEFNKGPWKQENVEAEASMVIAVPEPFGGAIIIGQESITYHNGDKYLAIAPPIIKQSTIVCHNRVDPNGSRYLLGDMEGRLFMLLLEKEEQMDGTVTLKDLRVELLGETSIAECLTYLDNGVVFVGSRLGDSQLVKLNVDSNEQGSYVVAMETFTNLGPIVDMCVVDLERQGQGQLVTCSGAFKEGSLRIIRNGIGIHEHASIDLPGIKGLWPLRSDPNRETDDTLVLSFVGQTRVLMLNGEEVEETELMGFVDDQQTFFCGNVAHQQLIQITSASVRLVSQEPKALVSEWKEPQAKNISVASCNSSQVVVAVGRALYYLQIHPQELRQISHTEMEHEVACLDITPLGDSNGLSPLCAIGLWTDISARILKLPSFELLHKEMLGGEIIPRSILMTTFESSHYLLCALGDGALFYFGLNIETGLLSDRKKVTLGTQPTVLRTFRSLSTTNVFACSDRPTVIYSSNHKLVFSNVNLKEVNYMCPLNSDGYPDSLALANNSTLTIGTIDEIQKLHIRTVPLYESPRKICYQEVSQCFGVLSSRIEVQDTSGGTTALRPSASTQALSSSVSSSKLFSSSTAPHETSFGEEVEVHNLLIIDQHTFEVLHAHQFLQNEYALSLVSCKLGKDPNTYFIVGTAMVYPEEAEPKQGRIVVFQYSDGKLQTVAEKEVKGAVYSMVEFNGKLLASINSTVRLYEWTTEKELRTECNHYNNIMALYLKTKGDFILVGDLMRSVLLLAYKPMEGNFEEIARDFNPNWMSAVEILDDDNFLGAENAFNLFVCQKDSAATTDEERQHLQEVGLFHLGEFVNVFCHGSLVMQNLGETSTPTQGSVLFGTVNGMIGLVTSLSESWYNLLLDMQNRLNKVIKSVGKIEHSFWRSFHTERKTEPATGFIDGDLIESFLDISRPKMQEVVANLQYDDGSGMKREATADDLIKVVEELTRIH

As for `Cc1nc(NC(=O)c2ccccc2NC(=O)CCCCCCCNC(=O)CN2CCN(c3ccc(Nc4ncc(F)c(-c5cc(F)c6nc(C)n(C(C)C)c6c5)n4)nc3)CC2)sc1C` [CPD-306, N-(4,5-Dimethylthiazol-2-yl)-2-(8-(2-(4-(6-((5-fluoro-4-(4-fluoro-1-isopropyl-2-methyl-1H-benzo[d]imidazol-6-yl)pyrimidin-2-yl)amino)pyridin-3-yl)piperazin-1-yl)acetamido)octanamido)benzamide], the “CyclinD1 Degradation (10 μM)” value in experiment [1] is on record as “D (protein percentage degradation < 30%)”. In experiment [2] (Calu-1 cells, 16 hours), the inhibition at 10 µM is below 30%.
The corresponding values for `Cc1nc(NC(=O)c2ccccc2NC(=O)CCOCCOCCOCCNC(=O)CN2CCN(Cc3ccc(Nc4ncc(F)c(-c5cc(F)c6nc(C)n(C(C)C)c6c5)n4)nc3)CC2)sc1C` [CPD-282, N-(4,5-Dimethylthiazol-2-yl)-2-(1-(4-((6-((5-fluoro-4-(4-fluoro-1-isopropyl-2-methyl-1H-benzo[d]imidazol-6-yl)pyrimidin-2-yl)amino)pyridin-3-yl)methyl)piperazin-1-yl)-2-oxo-6,9,12-trioxa-3-azapentadecan-15-amido)benzamide] are “D (protein percentage degradation < 30%)” and below 30%.
On to `CC(=O)c1c(C)c2cnc(Nc3ccc(N4CCN(CC(=O)NCCOCCOCCOCCOCCOCCNc5ccc(C(=O)Nc6nc(-c7ccccc7)c(C)s6)c(C)c5)CC4)cn3)nc2n(C2CCCC2)c1=O` [CPD-034], for which the “CyclinD1 Degradation (200 nM)” value in experiment [1] is “D (protein percentage degradation <30%)”. Also, in experiment [2] (Calu-1 cells, 200 nM, 16 hours), the inhibition at 0.2 µM was below 30%.
As to `Cc1nc(NC(=O)c2ccccc2NC(=O)CNC(=O)CN2CCN(c3ccc(Nc4ncc5cc(C(=O)N(C)C)n(C6CCCC6)c5n4)nc3)CC2)sc1C` [CPD-286, 7-Cyclopentyl-2-((5-(4-(2-((2-((2-((4,5-dimethylthiazol-2-yl)carbamoyl)phenyl)amino)-2-oxoethyl)amino)-2-oxoethyl)piperazin-1-yl)pyridin-2-yl)amino)-N,N-dimethyl-7H-pyrrolo[2,3-d]pyrimidine-6-carboxamide], the “CyclinD1 Degradation (10 μM)” value in experiment [1] was “A (protein percentage degradation >= 80%)”. For the same compound, the inhibition at 10 µM in experiment [2] (Calu-1 cells, 16 hours) was 50 to 80%.
`CC(=O)c1c(C)c2cnc(Nc3ccc(N4CCN(CC(=O)NCCCCCCNc5cccc(C(=O)Nc6nc(C)c(C)s6)c5C)CC4)cn3)nc2n(C2CCCC2)c1=O` [CPD-101, 3-((6-(2-(4-(6-((6-Acetyl-8-cyclopentyl-5-methyl-7-oxo-7,8-dihydropyrido[2,3-d]pyrimidin-2-yl)amino)pyridin-3-yl)piperazin-1-yl)acetamido)hexyl)amino)-N-(4,5-dimethylthiazol-2-yl)-2-methylbenzamide]: in experiment [1], the “CyclinD1 Degradation (200 nM)” value is listed as “A (protein percentage degradation >=80%)”. In experiment [2] (Calu-1 cells, 200 nM, 16 hours), the inhibition at 0.2 µM was in the range of 50 to 80%.
Regarding `CC(=O)c1c(C)c2cnc(Nc3ccc(N4CCN(C(=O)CCCCNc5ccc(C)c(C(=O)Nc6nc(C)c(C)s6)c5)CC4)cn3)nc2n(C2CCCC2)c1=O` [CPD-108, 5-((5-(4-(6-((6-Acetyl-8-cyclopentyl-5-methyl-7-oxo-7,8-dihydropyrido[2,3-d]pyrimidin-2-yl)amino)pyridin-3-yl)piperazin-1-yl)-5-oxopentyl)amino)-N-(4,5-dimethylthiazol-2-yl)-2-methylbenzamide], the “CyclinD1 Degradation (200 nM)” value in experiment [1] is “D (protein percentage degradation <30%)”. The inhibition at 0.2 µM in experiment [2] (Calu-1, 16 h) was below 30%.
As for `CC(=O)c1c(C)c2cnc(Nc3ccc(N4CCN(CC(=O)NCCOCCOCCOCCOCCNC(=O)COc5ccc(C(=O)Nc6ncc(C)s6)c(C)c5)CC4)cn3)nc2n(C2CCCC2)c1=O` [CPD-041, 4-((20-(4-(6-((6-Acetyl-8-cyclopentyl-5-methyl-7-oxo-7,8-dihydropyrido[2,3-d]pyrimidin-2-yl)amino)pyridin-3-yl)piperazin-1-yl)-2,19-dioxo-6,9,12,15-tetraoxa-3,18-diazaicosyl)oxy)-2-methyl-N-(5-methylthiazol-2-yl)benzamide], the “CyclinD1 Degradation (200 nM)” value in experiment [1] was “D (protein percentage degradation <30%)”. In experiment [2] (Calu-1 cells, 200 nM, 16 hours), the inhibition at 0.2 µM was below 30%.
On the same counts, the results for `CC(=O)c1c(C)c2cnc(Nc3ccc(N4CCN(CC(=O)NCCOCCOCCC(=O)Nc5ccccc5C(=O)Nc5ccc(C)c(C6CC6)n5)CC4)cn3)nc2n(C2CCCC2)c1=O` [CPD-270, 2-(3-(2-(2-(2-(4-(6-((6-Acetyl-8-cyclopentyl-5-methyl-7-oxo-7,8-dihydropyrido[2,3-d]pyrimidin-2-yl)amino)pyridin-3-yl)piperazin-1-yl)acetamido)ethoxy)ethoxy)propanamido)-N-(6-cyclopropyl-5-methylpyridin-2-yl)benzamide] are “A (protein percentage degradation >=80%)” and 50 to 80%.
The corresponding values for `CC(=O)c1c(C)c2cnc(Nc3ccc(N4CCN(CC(=O)NCCCCCNC(=O)COc5ccc(C(=O)Nc6ncc(C)s6)c(C)c5)CC4)cn3)nc2n(C2CCCC2)c1=O` [CPD-036, 4-(2-((5-(2-(4-(6-((6-Acetyl-8-cyclopentyl-5-methyl-7-oxo-7,8-dihydropyrido[2,3-d]pyrimidin-2-yl)amino)pyridin-3-yl)piperazin-1-yl)acetamido)pentyl)amino)-2-oxoethoxy)-2-methyl-N-(5-methylthiazol-2-yl)benzamide] are “D (protein percentage degradation <30%)” and below 30%.
On the same counts, the results for `CC(=O)c1c(C)c2cnc(Nc3ccc(N4CCN(CC(=O)NCCOCCOCCOCCNc5cccc(C(=O)Nc6nc(C)c(C)s6)c5C)CC4)cn3)nc2n(C2CCCC2)c1=O` [CPD-105, 3-((1-(4-(6-((6-Acetyl-8-cyclopentyl-5-methyl-7-oxo-7,8-dihydropyrido[2,3-d]pyrimidin-2-yl)amino)pyridin-3-yl)piperazin-1-yl)-2-oxo-6,9,12-trioxa-3-azatetradecan-14-yl)amino)-N-(4,5-dimethylthiazol-2-yl)-2-methylbenzamide] are “A (protein percentage degradation >=80%)” and 50 to 80%.
As for `CC(=O)c1c(C)c2cnc(Nc3ccc(N4CCN(CC(=O)NCCOCCOCCC(=O)Nc5ccccc5C(=O)Nc5ncc(C)cn5)CC4)cn3)nc2n(C2CCCC2)c1=O` [CPD-055, 2-(3-(2-(2-(2-(4-(6-((6-Acetyl-8-cyclopentyl-5-methyl-7-oxo-7,8-dihydropyrido[2,3-d]pyrimidin-2-yl)amino)pyridin-3-yl)piperazin-1-yl)acetamido)ethoxy)ethoxy)propanamido)-N-(5-methylpyrimidin-2-yl)benzamide], the “CyclinD1 Degradation (200 nM)” value in experiment [1] was “D (protein percentage degradation <30%)”. In addition, the inhibition at 0.2 µM in experiment [2] (Calu-1 cells, 200 nM, 16 hours) was below 30%.
As for `Cc1nc(NC(=O)c2ccccc2NC(=O)CCCCCNC(=O)CN2CCN(Cc3ccc(Nc4ncc(F)c(-c5cc(F)c6nc(C)n(C(C)C)c6c5)n4)nc3)CC2)sc1C` [CPD-276, N-(4,5-Dimethylthiazol-2-yl)-2-(6-(2-(4-((6-((5-fluoro-4-(4-fluoro-1-isopropyl-2-methyl-1H-benzo[d]imidazol-6-yl)pyrimidin-2-yl)amino)pyridin-3-yl)methyl)piperazin-1-yl)acetamido)hexanamido)benzamide], the “CyclinD1 Degradation (10 μM)” value in experiment [1] is reported as “D (protein percentage degradation < 30%)”. The inhibition at 10 µM in experiment [2] (Calu-1 cells, 16 hours) was below 30%.
Regarding `CC(=O)c1c(C)c2cnc(Nc3ccc(N4CCN(C(=O)CCOCCOCCOCCOCCOCCOCCC(=O)Nc5ccccc5C(=O)Nc5nc(C)c(C)s5)CC4)cn3)nc2n(C2CCCC2)c1=O` [CPD-182, 22-(4-(6-((6-Acetyl-8-cyclopentyl-5-methyl-7-oxo-7,8-dihydropyrido[2,3-d]pyrimidin-2-yl)amino)pyridin-3-yl)piperazin-1-yl)-N-(2-((4,5-dimethylthiazol-2-yl)carbamoyl)phenyl)-22-oxo-4,7,10,13,16,19-hexaoxadocosanamide], the “CyclinD1 Degradation (200 nM)” value in experiment [1] was “D (protein percentage degradation <30%)”. In addition, the inhibition at 0.2 µM in experiment [2] (Calu-1, 16 h) is below 30%.
As for `Cc1nc(NC(=O)c2ccccc2NC(=O)CCCCCCCNC(=O)CN2CCN(c3ccc(Nc4ncc5cc6n(c5n4)C4(CCCCC4)CNC6=O)nc3)CC2)sc1C` [CPD-320, N-(4,5-Dimethylthiazol-2-yl)-2-(8-(2-(4-(6-((6′-oxo-7′,8′-dihydro-6′H-spiro[cyclohexane-1,9′-pyrazino[1′,2′:1,5]pyrrolo[2,3-d]pyrimidin]-2′-yl)amino)pyridin-3-yl)piperazin-1-yl)acetamido)octanamido)benzamide], the “CyclinD1 Degradation (10 μM)” value in experiment [1] is given as “A (protein percentage degradation >= 80%)”. Moreover, in experiment [2] (Calu-1 cells, 16 hours), the inhibition at 10 µM was in the range of 50 to 80%.
On the same counts, the results for `Cc1nc(NC(=O)c2ccccc2NC(=O)CCOCCOCCOCCOCCOCCOCCNC(=O)CN2CCN(Cc3ccc(Nc4ncc(F)c(-c5cc(F)c6nc(C)n(C(C)C)c6c5)n4)nc3)CC2)sc1C` [CPD-285, N-(4,5-Dimethylthiazol-2-yl)-2-(1-(4-((6-((5-fluoro-4-(4-fluoro-1-isopropyl-2-methyl-1H-benzo[d]imidazol-6-yl)pyrimidin-2-yl)amino)pyridin-3-yl)methyl)piperazin-1-yl)-2-oxo-6,9,12,15,18,21-hexaoxa-3-azatetracosan-24-amido)benzamide] are “D (protein percentage degradation < 30%)” and below 30%.
